The nature of data set [1]: Pharmacokinetics in brain and plasma after dosing. In kind it is in vivo, CD-1 mice. As for the experimental part: KH022 in the present invention and the control described in example 56
The experimental animals are CD-1 mice.
Preparation of test compounds with 30% SBECD in water for intragastric administration. On the first day of the experiment, the animals in the first group are […] with the solution of KH022 or the control with the dosage of 5 mL/kg; before the administration, the animals were weighed, and the administration volume was calculated according to the body weight. Whole blood samples (about 0.03 ml per group) were collected at a specified time by saphenous vein puncture (or other suitable collection locations). Blood samples were immediately processed for plasma by centrifugation at approximately 4° C., 3,200 g for 10 min, quickly placed in dry ice, and kept below −20° C. until LC/MS/MS analysis. At each time point, animals were euthanized using CO2 and then brain tissue was collected, rinsed and dried with physiological saline, and homogenized with 4 times the brain weight (g) volume of 15 mM PBS (pH7.4):MeOH=2:1. After homogenization, samples were transferred to labeled centrifuge tubes and quickly placed in dry ice, stored at or below −20° C. for LC-MS/MS analysis.
The concentrations of the test compound in dose formulation samples was determined by the LC/UV, and the calibration curve contains at least 6 calibration standards, R^2≥0.999. The concentrations of the test compound in biological matrix was determined by the LC/MS/MS method. The retention time of test compounds or internal standards, chromatogram acquisition and chromatogram integration were processed by software Analyst (Applied Biosystems), and data statistics were processed by software Watson LIMS (Thermo Fisher Scientific) or Analyst (Applied Biosystems). The unit of the analyte concentration in the sample is ng/ml, with 3 significant digits reserved, and all values expressed in percentages (such as % deviation and % coefficient of variation, etc.) were kept to one decimal place. […]

For data set [2], the target named is T1, GABAA4 (α4β3δ) receptor (Homo sapiens, UniProt P28472+P48169).
T1 construct: expressed in transfected cells; host or cells: HEK293 (transient transfection, plasmids 1:1:1)
In words: Patch-clamp electrophysiology, compound alone or with 10 nM GABA (Table 3). It counts as cell-based. The conditions noted are these: for Emax: relative to peak current in GABA only. The method, then: The present invention applies the two subunits of the recombinant GABAA receptor: α1β2γ2 and α4β3δ to evaluate the potency of the exemplary compounds in vitro by patch-clamp electrophysiology.
Extracellular fluid: 140 mM NaCl, 5 mM CsCl, 2 mM CaCl2·2H2O, 1 mM MgCl2·6H2O, 5 mM HEPES, 10 mM D-Glucose, pH=7.4 (NaOH).
Intracellular fluid: 130 mM CsCl, 0.1 mM CaCl2·H2O, 2 mM MgCl2·6H2O, 1.1 mM EGTA, 5 mM Na2-ATP, 10 mM HEPES, pH=7.2 (CsOH).
HEK293 cell line was cultured in DMEM containing 10% fetal bovine serum and 5% carbon dioxide at 37° C.
Cell passage: The old medium was removed, and the cells were washed once with PBS. Then 1 mL 0.25%-Trypsin-EDTA solution was added to digest cells. The culture dish was incubated at 37° C. in pre-warmed incubator for 0.5 minutes. As soon as cells were detached, about 5 mL 37° C. pre-warmed complete medium was added. Cell aggregates were dissociated by gentle pipetting. The cell suspension was transferred into a sterile centrifuge tube and then the cell suspension was be spun at approximately 1000 rpm for 5 minutes. The cells were amplified or maintained by seeding 2.5×10^5 cells in a 6 cm dish (final medium volume: 5 mL). For transfection, 8×10^3 cells were plated onto coverslips, and cultured in a 24-well plate (final medium volume: […]).
Transfection: Second day, the transfection of GABAA4 (α4, β3, δ plasmid ratio 1:1:1) was performed. The X-tremeGENE HP DAN Transfection Reagents kit were used. The ratio of the plasmid and transfection reagent was 1 μg: 2 μL. The amount of plasmid in the 24-well plate was 0.5 μg per well, and the transfection reagent was 1 μL. The following specific steps were taken for preparing the 12 wells: The 600 μL Opti-MEM was added to a sterile centrifuge tube along with 6 μg of plasmid and was allowed to mix well; Then, the 12 μL of transfection reagent was added, mixed well following 15 min incubation at room temperature. The transfection complex was then inoculated into the cell, 50 μL per well, and the transfection complex was lightly stirred and mixed.
This mixture was changed on the third day, and the patch-clamp was performed on the fourth day.
Glass pipette (BF 150-86-10, Sutter Instruments) was pulled using a micropipette puller (P97, Sutter Instruments). The glass pipette was manipulated using a micro-manipulator (MP285, Sutter Instruments) under the microscope (IX71, Olympus). After touching the cell, a slight suction was applied to achieve high seal resistance (GQ). Fast capacitance (in pF) compensation was made after achieving high seal, and the membrane was broken. Cell capacitance (in pF) compensation was made from whole-cell capacitance compensation after the whole cell mode was achieved. No leak subtraction was made.
The test and control solutions flowed into a recording chamber mounted on the stage of an inverted microscope via a gravity-fed solution delivery system. During the experiment, solutions were withdrawn from the recording chamber by vacuum aspiration. Each concentration was tested at multiple times. All tests were performed at room temperature.
Whole cell model recorded GABAA4 receptors current experimental protocol was indicated as follows: When sealing, cell was at a holding potential of −70 mV, with gap-free mode to record the peak current. The cell would be applied with 10 nM GABA to active current. After the test articles application for 30 s, each concentration of test articles was applied with 10 nM GABA followed by 2 minutes washout using extracellular solution. Finally, 10 μM GABA was used as a positive control. The data were collected by EPC-10 amplifier and stored in PatchMaster (HEKA) software.
The following criteria are used to determine whether the data is acceptable: • (1) Electrode resistance <5MΩ • (2) Seal resistance >1GΩ • (3) The start of access resistance <15 MΩ • (4) The end of access resistance <15 MΩ • (5) No obvious spontaneous current decay. • (6) No obvious current leakage when the membrane potential is-70 mv. […]
On the technique in general: In patch-clamp work, channel activity is measured electrically.

In data set [3] the test system is mice. In words: Elevated Plus Maze (EPM) testing. In kind it is in vivo. The conditions noted are these: 5 consecutive days, 30 min after last administration, male mice. The text has this:
57.3.2 Elevated Plus Maze (EPM) testing: EPM for exploratory behavior was used to assess general motor and anxiety-like behavior that was consisting of two open arms and two closed arms extending from a common central platform, thus forming anxiety-like symptoms. The anxiolytic compound would relieve the anxiety conflict status of animals in the test system. The experimental mice were randomly divided into 4 groups based on weight, including a negative control group, two different dosage groups (1 mg/kg and 3 mg/kg) of test compounds (KH004 or KH022), and every group had 10 male mice. Mice were administered with corresponding dosage for test intervention for 5 consecutive days in advance, and conducting anxiolytic experiments after 30 min of the last administration. The percentage of the retention time (latency) of mice open arms were used as the main index to evaluate the anxiolytic effect of KH004 and KH022, the results are shown in Table 5.

The mark [4] stands for this setting: with 10 nM GABA, read-out: Emax (with 10 nM GABA).
Where [5] appears, read: without GABA, read-out: Emax (without GABA).
Setting [6] is: with 10 nM GABA, read-out: EC50 (with 10 nM GABA).

Read-outs that look alike come from different tables or passages of the source.

Data on three compounds can be found in patent publication US12415830B2, “Steroid compound, and use thereof and preparation method therefor” (Chengdu Kanghong Pharmaceutical Co Ltd, priority 2019, dated 2025).

One may read the EC50 as the concentration at which the effect is half-maximal. A word on the Emax: it is the size of the effect at its maximum, as opposed to the concentration needed.

T1 sequence (P48169 36-554): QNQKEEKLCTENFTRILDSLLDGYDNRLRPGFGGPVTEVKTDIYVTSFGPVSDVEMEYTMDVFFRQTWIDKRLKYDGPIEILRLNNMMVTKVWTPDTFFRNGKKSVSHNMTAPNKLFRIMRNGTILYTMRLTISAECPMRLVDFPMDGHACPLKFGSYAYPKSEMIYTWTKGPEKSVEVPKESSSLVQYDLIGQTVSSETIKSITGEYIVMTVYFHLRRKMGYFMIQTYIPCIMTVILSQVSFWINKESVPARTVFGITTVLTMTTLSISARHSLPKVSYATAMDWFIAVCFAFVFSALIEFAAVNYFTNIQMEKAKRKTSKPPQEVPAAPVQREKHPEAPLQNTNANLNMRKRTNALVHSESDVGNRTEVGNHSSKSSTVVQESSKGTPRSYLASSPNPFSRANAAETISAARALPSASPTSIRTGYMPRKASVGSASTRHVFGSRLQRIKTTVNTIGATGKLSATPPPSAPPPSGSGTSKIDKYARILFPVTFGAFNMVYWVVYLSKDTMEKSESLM
T1 sequence (P28472 26-473): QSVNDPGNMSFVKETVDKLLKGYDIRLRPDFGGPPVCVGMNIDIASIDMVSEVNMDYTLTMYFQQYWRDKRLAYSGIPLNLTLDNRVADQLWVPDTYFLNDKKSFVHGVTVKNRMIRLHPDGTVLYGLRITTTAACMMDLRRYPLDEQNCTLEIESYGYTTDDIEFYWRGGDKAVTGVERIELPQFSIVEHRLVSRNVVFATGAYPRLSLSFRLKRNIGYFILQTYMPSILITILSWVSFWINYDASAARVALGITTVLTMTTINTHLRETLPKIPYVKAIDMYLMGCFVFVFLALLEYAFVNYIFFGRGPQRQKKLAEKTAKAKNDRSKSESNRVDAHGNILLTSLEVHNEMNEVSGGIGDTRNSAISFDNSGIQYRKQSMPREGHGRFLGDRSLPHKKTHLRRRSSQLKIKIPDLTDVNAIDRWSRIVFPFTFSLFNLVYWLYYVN
T1 sequence (O14764 25-452 partner): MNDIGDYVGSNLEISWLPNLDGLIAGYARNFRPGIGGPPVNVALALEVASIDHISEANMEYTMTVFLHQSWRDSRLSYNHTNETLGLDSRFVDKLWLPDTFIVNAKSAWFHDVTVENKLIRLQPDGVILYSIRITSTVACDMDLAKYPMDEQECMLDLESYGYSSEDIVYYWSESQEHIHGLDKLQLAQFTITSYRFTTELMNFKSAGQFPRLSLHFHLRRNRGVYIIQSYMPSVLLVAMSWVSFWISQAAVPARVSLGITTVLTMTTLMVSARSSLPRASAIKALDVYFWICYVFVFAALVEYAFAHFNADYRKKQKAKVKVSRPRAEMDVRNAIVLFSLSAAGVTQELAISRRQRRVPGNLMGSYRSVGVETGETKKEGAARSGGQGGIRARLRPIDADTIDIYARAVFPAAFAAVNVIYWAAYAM

For the compound `C[C@@]1(O)CC[C@H]2[C@H](CC[C@@H]3[C@@H]2CC[C@]2(C)[C@@H](C(=O)Cn4cc(C#N)cn4)CC[C@@H]32)C1` [The control, reference compound], the “detection in the brain” value in data set [1] (mouse brain, 8h) is “no detection”. Further, the EC50 in data set [2] (EC50 (with 10 nM GABA), with 10 nM GABA) is 219 nM. The Emax in data set [2] (setting [4]) came to 149%; in data set [2] (setting [5]) it was 114%.
As for `C[C@@]1(O)CC[C@@]2(C)[C@@H](CC[C@@H]3[C@@H]2CC[C@]2(C)[C@@H](C(=O)Cn4ncnn4)CCC[C@@H]32)C1` [KH022], in data set [1] (2h, same dosage), the “content in the mouse brain relative to the control” value amounted to 2.5 times. Moreover, the “clearance in the mouse brain compared with the control” value in data set [1] (same dosage) was “cleared more slowly”. Moreover, in data set [2] (setting [6]), the EC50 turned out to be 386 nM. For the same compound, the figures for the Emax in data set [2] (setting [4]) and in data set [2] (setting [5]) were 88.6% and 45.8%, respectively. For the same compound, the “The retention time of mice open arms” value in data set [3] (1 mg/kg) worked out at 31.40 ± 16.41 %; in data set [3] (3 mg/kg) it was 39.46 ± 11.82 %.
For `C[C@]12CC[C@@H](O)C[C@@H]1CC[C@@H]1[C@@H]2CC[C@]2(C)[C@@H](C(=O)Cn3ncnn3)CCC[C@@H]12` [KH004], the EC50 in data set [2] (setting [6]) is 135 nM; in data set [2] (without GABA, read-out: EC50 (without GABA)) it was 172 nM. For the same compound, the results for the Emax in data set [2] (setting [4]) and in data set [2] (setting [5]) were 172% and 158%, respectively. Moreover, the “The retention time of mice open arms” value in data set [3] (1 mg/kg) turned out to be 27.21 ± 11.15 %; in data set [3] (3 mg/kg) it was 36.44 ± 13.28 %.
